Assay results published in ChEMBL document CHEMBL5042549, “Discovery of Inhibitors of the Lipopolysaccharide Transporter MsbA: From a Screening Hit to Potent Wild-Type Gram-Negative Activity” (J Med Chem, 2022).
Converted amounts (≈) assume the structure as drawn.

Columns and labels:
[1] = Lipophilicity, logD of compound by shake flask method; assay type: physicochemical; conditions: octanol/water
[2] = Inhibition of Escherichia coli MsbA preincubated for 10 mins followed by ATP addition and incubated for 1 hr by fluorescence polarization assay
Escherichia coli [3] = test: Antibacterial activity against wild type Escherichia coli CFT073 (ATCC 700928) assessed as bacterial growth by broth microdilution assay; assay type: functional
Escherichia coli [4] = test: Antibacterial activity against wild type Escherichia coli MG1655 msbA-cKO lptD (imp4213) expressing Escherichia coli MsbA assessed as bacterial growth inhibition by broth microdilution assay; assay type: functional
A549 = test: Cytotoxicity against human A549 cells at 50 uM; assay type: toxicity, cell-based; conditions: a549, 50 µM
Escherichia coli [5] = test: Antibacterial activity against wild type Escherichia coli MG1655 msbA-cKO lptD (imp4213) expressing Acinetobacter baumannii MsbA assessed as bacterial growth inhibition by broth microdilution assay; assay type: functional
Escherichia coli [6] = test: Selectivity ratio of MIC for Escherichia coli MG1655 msbA-cKO lptD (imp4213) […]; assay type: functional
Klebsiella pneumoniae = test: Antibacterial activity against wild type Klebsiella pneumoniae MGH78578 (ATCC 700721) assessed as bacterial growth inhibition by broth microdilution assay; assay type: functional
Jurkat = test: Cytotoxicity against human Jurkat cells at 50 uM; assay type: toxicity, cell-based
Enterobacter cloacae = test: Antibacterial activity against wild type Enterobacter cloacae (ATCC 13047) assessed as bacterial growth inhibition by broth microdilution assay; assay type: functional
HEK293 = test: Cytotoxicity against human HEK293 cells at 50 uM; assay type: toxicity, cell-based; conditions: hek293, 50 µM
Escherichia coli [7] = test: Antibacterial activity against wild type Escherichia coli MG1655 carrying lptD (imp4213) assessed as bacterial growth inhibition by broth microdilution assay; assay type: functional

Compound	logD [1]	IC50 [2] [nM]	MIC (Escherichia coli [3]) [µM]	also measured
C[C@H](Oc1ccc2ncc(/C=C/c3nn[nH]n3)c(C3CC3)c2c1)c1c(Cl)ccc(F)c1Cl	3.7	3	12	–
C[C@H](Oc1ccc2ncc(-c3ccn(CCC(=O)O)n3)c(C3CC3)c2c1)c1c(Cl)cccc1Cl	2.7	6	> 100	–
C[C@H](Oc1ccc2nc(OCCN)c(CCC(=O)O)c(C3CC3)c2c1)c1c(Cl)ccc(F)c1Cl	3.8	32	> 100	–
C[C@H](Oc1ccc2ncc(/C=C/C(=O)O)c(CF)c2c1)c1c(Cl)ccc(F)c1Cl	–	25	> 100	–
C[C@H](Oc1ccc2ncc(S(=O)(=O)CC(=O)O)c(C3CC3)c2c1)c1c(Cl)ccc(F)c1Cl	2.5	78	> 100	–
C[C@H](Oc1ccc2ncc(/C=C/C(=O)O)c(O)c2c1)c1c(Cl)ccc(F)c1Cl	1.9	5000	> 100	–
C[C@H](Oc1ccc2nnc(/C=C/C(=O)O)c(C3CC3)c2c1)c1c(Cl)ccc(F)c1Cl	3.2	20	> 100	–
C[C@H](Oc1cc(CC#N)c2ncc(/C=C/C(=O)O)c(C3CC3)c2c1)c1c(Cl)ccc(F)c1Cl	2.8	20	79	–
Cc1c(/C=C/C(=O)O)ccc2ccc(O[C@@H](C)c3c(Cl)ccc(F)c3Cl)cc12	4.5	32	> 100	–
C[C@H](Oc1ccc2ncc(/C=C/c3nn[nH]n3)c(C3CC3)c2c1)c1c(Cl)cccc1Cl	4.3	2	12	MIC (Escherichia coli [4]): < 0.1 µM; Activity (A549): Non-Toxic; MIC (Escherichia coli [5]): 50 µM (≈ 22.6 µg/mL); Selectivity ratio (Escherichia coli [6]): > 500; MIC (Klebsiella pneumoniae): 12 µM (≈ 5.43 µg/mL); Activity (Jurkat): Non-Toxic; MIC (Enterobacter cloacae): 25 µM (≈ 11.3 µg/mL); Activity (HEK293): Non-Toxic
C[C@H](Oc1nccc(N(c2nc(C(=O)O)cs2)C2CC2)n1)c1c(Cl)ccc(F)c1Cl	2.6	46	> 100	–
C[C@H](Oc1ccc2ncc(CCC(=O)O)c(C3CC3)c2c1)c1c(Cl)ccc(F)c1Cl	4.1	7	> 100	–
C[C@H](Oc1ccnc(C2CC2)n1)c1c(Cl)ccc(F)c1Cl	4.2	450	> 100	MIC (Escherichia coli [7]): > 100 µM
Cc1c(/C=C/C(=O)O)cnc2ccc(O[C@@H](C)c3c(Cl)ccc(F)c3Cl)cc12	3	20	> 100	–
C[C@H](Oc1ccc2ncc(/C=C/C(=O)O)c(N(C)C)c2c1)c1c(Cl)ccc(F)c1Cl	3.6	290	> 100	–
C[C@H](Oc1cnc2cnc(/C=C/C(=O)O)c(C3CC3)c2c1)c1c(Cl)cccc1Cl	–	12	> 100	–
C[C@H](Oc1ccc2ncc(/C=C/C(=O)NC(CC(=O)O)CC(=O)O)c(C3CC3)c2c1)c1c(Cl)ccc(F)c1Cl	0.4	9	> 100	–
C[C@H](Oc1ccc2ncc(/C=C/C(=O)O)c(C3COC3)c2c1)c1c(Cl)ccc(F)c1Cl	–	120	> 100	–
C[C@H](Oc1ccc(/C=C/C(=O)O)c(CC2CC2)c1)c1c(Cl)ccc(F)c1Cl	3.9	460	> 100	MIC (Escherichia coli [7]): 50 µM (≈ 20.5 µg/mL)
C[C@H](Oc1ccc2ncc(/C=C/C(=O)O)c(C3CC3)c2c1)c1c(Cl)ccc(F)c1Cl	4.1	4	79	–
C[C@H](Oc1cc(CO)c2ncc(/C=C/C(=O)O)c(C3CC3)c2c1)c1c(Cl)ccc(F)c1Cl	2.9	10	> 100	–
C[C@H](Oc1ccc(NC(=O)CC(=O)O)c(C2CC2)n1)c1c(Cl)ccc(F)c1Cl	1.4	12	> 100	MIC (Escherichia coli [7]): 31 µM (≈ 13.2 µg/mL)
C[C@H](Oc1ccnc(C2CC2)c1)c1c(Cl)ccc(F)c1Cl	4.3	3400	> 100	MIC (Escherichia coli [7]): > 100 µM
CC(Oc1ccc2ncc(/C=C/C(=O)O)cc2c1)C1CCCCC1 (stereo not drawn)	3	39000	–	–
C[C@H](Oc1ccc2ncc(/C=C/C(=O)O)c(C(F)F)c2c1)c1c(Cl)ccc(F)c1Cl	3.1	8	25	–
C[C@H](Oc1ccc2ncc(/C=C/C(=O)O)c(-n3ccnc3)c2c1)c1c(Cl)ccc(F)c1Cl	2	2200	> 100	–
CC(C)Oc1ccc2ncc(/C=C/C(=O)O)c(C3CC3)c2c1	–	> 10000	> 100	–
